Here are results for 20 compounds from patent US7618996B2, “Diaryl ether derivatives and uses thereof” (Pfizer Inc., priority 2006, dated 2009).

A word on the Ki: it is the equilibrium dissociation constant of an inhibitor or competing ligand from its target. Low readings indicate a stronger hold on the target, high ones a looser hold on the target. A word on the half-life: it is how long it takes for the measured level to halve. Broadly, the clearance is the rate of elimination divided by the concentration.

Structures are written as SMILES. Counter-ions that a name gives are not always drawn.

Data set [1] deals with T1, kappa opioid receptor (Homo sapiens, UniProt P41145). As to the kind of experiment: GTPγ[35S] binding assay at kappa opioid receptor (antagonist vs dynorphin-A). Format: biochemical. The note with it: average Ki; membranes, challenged with dynorphin-A (10 nM). The arrangement: expressed in transfected cells. As for the experimental part:
(§1) GTPγ[^35S] Binding Assays at Opioid Receptors
(§2) Membranes were prepared from cells as described (Bass et al, 1996). GTPγ[^35S] binding assays were performed in a 96 well FlashPlate™ format in duplicate using 100 pM GTPγ[^35S] and 5 μg membrane per well in assay buffer composed of 50 mM Tris HCl, pH 7.4, 5 mM MgCl2, 1 mM EDTA, 100 mM NaCl, 30 μM GDP, 0.1% bovine serum albumin and the following protease inhibitors: 100 μg/ml bacitracin, 100 μg/ml benzamidine, 5 μg/ml aprotinin, 5 μg/ml leupeptin. The assay mix was then incubated at 30° C. with increasing concentrations of antagonist (10^−10 M to 10^−5 M) for 10 minutes and challenged with the agonists BW-373U86 (1 nM), dynorphin-A (10 nM), β-endorphin (1 μM) for opioid receptors delta, kappa, and mu, respectively. The assays were performed at 30° C. for one hour. The FlashPlates were then centrifuged at 2000×g for 10 minutes. Stimulation of GTPγ[^35S] binding was then quantified using a Wallac Microbeta and Ki calculations were done using Prism™ by Graphpad. […] Each of the compounds listed below were tested as their hydrochloride salts unless indicated otherwise. Those Example Numbers with an asterisk (*) were tested as their free base.

Data set [2] deals with T2, mu opioid receptor (Homo sapiens, UniProt P35372). As to the kind of experiment: GTPγ[35S] binding assay at mu opioid receptor (antagonist vs β-endorphin). The note with it: average Ki; membranes, challenged with β-endorphin (1 μM). Format: biochemical. The arrangement: expressed in transfected cells. The protocol: as §1, §2
T2 sequence (P35372 whole entry): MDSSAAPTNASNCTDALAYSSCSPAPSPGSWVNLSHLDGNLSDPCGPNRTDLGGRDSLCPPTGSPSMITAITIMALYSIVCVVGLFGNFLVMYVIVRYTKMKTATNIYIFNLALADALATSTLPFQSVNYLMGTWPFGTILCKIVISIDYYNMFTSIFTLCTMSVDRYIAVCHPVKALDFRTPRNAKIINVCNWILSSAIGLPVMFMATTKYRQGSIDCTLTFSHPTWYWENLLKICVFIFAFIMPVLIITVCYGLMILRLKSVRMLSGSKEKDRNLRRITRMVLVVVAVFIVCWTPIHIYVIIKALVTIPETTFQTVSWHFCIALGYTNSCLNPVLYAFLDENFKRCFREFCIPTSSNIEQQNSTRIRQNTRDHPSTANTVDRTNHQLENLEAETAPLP
(In general: GTPγS resists hydrolysis and so accumulates on activated G proteins.)

Data set [3] has as its target T3, delta opioid receptor (Homo sapiens, UniProt P41143). Put plainly: GTPγ[35S] binding assay at delta opioid receptor (antagonist vs BW-373U86). Format: biochemical. The arrangement: expressed in transfected cells. The note with it: average Ki; membranes, challenged with BW-373U86 (1 nM). The protocol: as §1, §2
In data set [4] the target is T1, kappa opioid receptor. The note with it: literature (Statnick 2003; Zimmerman 1993); cited from earlier work.
In data set [5] the target is T3, delta opioid receptor. The note with it: compared with mu and kappa; literature; cited from earlier work.
The target of data set [6] is T2, mu opioid receptor. The conditions noted are these: literature (Statnick 2003; Zimmerman 1993); cited from earlier work.
Data set [7] can be described thus: Pharmacokinetic experiment, IV in rats. The note with it: male JVC/CAC rats, 1 mg/kg IV; for half-life / clearance / Vd: rat, plasma; for clearance: average of two rats; for Vd: read-out: volume of distribution. It counts as in vivo, rat. As for the experimental part: A representative compound of the present invention (Example 1A) and a comparator compound (Example 2A) were individually dosed into two different male JVC/CAC rats at 1 mg/kg in a 10% ethanol and 90% (30% beta-cyclodextrin sulfobutylether) vehicle. Blood was subsequently collected at 0.083, 0.25, 0.5, 1, 2, 4, 6, 8 and 20 hours post IV administration. After spinning the blood samples down to get plasma, the plasma concentrations were determined by LC/MS/MS. The pharmacokinetic (PK) analysis was determined by inputting the resultant time concentration data into a Watson™ Laboratory Information Management System (LIMS).

The conditions of data set [8]: literature (Shaw 1991, 1993; Levine 1991); cited from earlier work.

T1 sequence (P41145 whole entry): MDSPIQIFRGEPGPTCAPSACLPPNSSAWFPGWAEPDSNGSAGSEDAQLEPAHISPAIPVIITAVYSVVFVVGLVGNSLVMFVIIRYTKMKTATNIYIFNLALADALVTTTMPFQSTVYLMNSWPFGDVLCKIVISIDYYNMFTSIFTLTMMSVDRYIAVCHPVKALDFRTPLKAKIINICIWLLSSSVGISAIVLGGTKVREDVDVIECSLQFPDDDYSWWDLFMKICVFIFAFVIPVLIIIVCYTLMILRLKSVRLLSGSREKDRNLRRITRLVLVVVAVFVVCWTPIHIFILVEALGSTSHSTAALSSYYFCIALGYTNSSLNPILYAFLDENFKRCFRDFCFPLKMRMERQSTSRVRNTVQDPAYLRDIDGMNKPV
T3 sequence (P41143 whole entry): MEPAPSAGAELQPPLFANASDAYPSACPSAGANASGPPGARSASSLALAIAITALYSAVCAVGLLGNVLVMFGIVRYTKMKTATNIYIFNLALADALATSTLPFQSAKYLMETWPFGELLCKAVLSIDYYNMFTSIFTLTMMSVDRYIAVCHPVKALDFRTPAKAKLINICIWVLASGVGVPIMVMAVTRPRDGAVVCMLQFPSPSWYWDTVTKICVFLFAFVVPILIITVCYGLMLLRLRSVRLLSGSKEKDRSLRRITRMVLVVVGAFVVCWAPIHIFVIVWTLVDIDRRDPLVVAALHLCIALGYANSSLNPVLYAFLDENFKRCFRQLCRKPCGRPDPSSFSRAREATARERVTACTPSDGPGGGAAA

Regarding `CC(C)CCNCc1cc(F)c(Oc2ccc(C(N)=O)c(O)c2)c(F)c1` [Example 4A, 4-(2,6-difluoro-4-{[(3-methybutyl)amino]methyl}phenoxy)-2-hydroxybenzamide], the inhibition constant (Ki) in data set [1] was found to be 0.164 nM; in data set [2], 0.094 nM; in data set [3] it was 0.465 nM.

In the case of `CC1CNCCC1(C)c1cccc(O)c1` (stereo not shown) [LY515300, 3,4-dimethyl-4-(3-hydroxyphenyl)piperidine], in data set [4], the “binding affinity for the kappa-opioid receptor subtype” value is given as “sub-nanomolar”. The “affinity for the delta-opioid receptor” value in data set [5] is “lower affinity”. Besides, the “binding affinity for the mu-opioid receptor subtype” value in data set [6] is on record as “sub-nanomolar”.

For the compound `NC(=O)c1ccc(Oc2ccc(CNC3Cc4ccccc4C3)cc2F)cc1O` [Example 3B], the Ki in data set [1] came to 0.0348 nM; in data set [2] it was 0.00412 nM; in data set [3], 0.041 nM.

As to `NC(=O)c1ccc(Oc2c(F)cc(CNC3CCCCC3)cc2F)cc1O` [Example 4B], the Ki in data set [1] is 0.0731 nM; in data set [2] it was 0.0772 nM; in data set [3], 0.866 nM.

For `CC(C)CCNCc1ccc(Oc2cccc(O)c2)c(F)c1.Cl` [Example 2A, 3-(2-fluoro-4-{[(3-methylbutyl)amino]-methyl}phenoxy)phenol, hydrochloride salt], the Ki in data set [1] came to 47.1 nM. This compound yielded a Ki in data set [2] of 16.7 nM. In data set [3], this compound had a Ki of 25.4 nM. In data set [7], the “clearance relative to hepatic blood flow” value was “approximately 5 times hepatic blood flow”, the half-life is 42 min, the clearance was 361 mL/min/kg and the Vd amounted to 10 L/kg.

As for `NC(=O)c1ccc(Oc2ccc(CNCCC3CC3)cc2F)cc1O` [Example 3A, 4-(4-{[(2-cyclopropylethyl)amino]methyl}-2-fluorophenoxy)-2-hydroxybenzamide, hydrochloride salt], the Ki in data set [1] is 0.39 nM; in data set [2], 0.312 nM; in data set [3], 0.62 nM.

Turning to `NC(=O)c1ccc(Oc2ccc(CNCC3CCOCC3)cc2F)cc1O` [Example 3H], the Ki was determined as 1.56 nM in data set [1], 4.9 nM in data set [2] and 3.02 nM in data set [3].

With `CC[C@@H](NCc1ccc(Oc2ccc(C(N)=O)c(O)c2)c(F)c1)c1ccccn1` [Example 3J], the Ki in data set [1] came out at 13.8 nM; in data set [2] it was 26.2 nM; in data set [3] it was 16.6 nM.

On to `NC(=O)c1ccc(Oc2c(F)cc(CNC[C@@H]3CCCO3)cc2F)cc1O` [Example 4D], for which the values for the Ki in data set [1], in data set [2] and in data set [3] were 0.184 nM, 0.346 nM and 4.87 nM, respectively.

As for `NC(=O)c1ccc(Oc2c(F)cc(CNCCC3CC3)cc2F)cc1O` [Example 4C], the Ki in data set [1] was 0.244 nM; in data set [2], 0.167 nM; in data set [3], 1.1 nM.

Consider `NC(=O)c1ccc(Oc2c(F)cc(CNCCC3CCOCC3)cc2F)cc1O` [Example 4E], for which the Ki in data set [1] was 0.419 nM; in data set [2] it was 0.0963 nM; in data set [3], 0.352 nM.

For `C[C@H]1CN(CC[C@H](O)C2CCCCC2)CC[C@@]1(C)c1cccc(O)c1` [LY255582], in data set [8], the anorectic effects result is recorded as “robust anorectic effects”.

Take `NC(=O)c1ccc(Oc2ccc(CNCCOc3ccccc3)cc2F)cc1O` [Example 3D]: the Ki in data set [1] is 5.35 nM; in data set [2] it was 0.92 nM; in data set [3], 0.687 nM.

For the compound `NC(=O)c1ccc(Oc2ccc(CNCC3CCCO3)cc2F)cc1O` (stereo not shown) [Example 3E], the values for the inhibition constant (Ki) in data set [1], in data set [2] and in data set [3] were 0.47 nM, 1.17 nM and 3.25 nM, respectively.

The compound `CC(C)CCNCc1ccc(Oc2ccc(C(N)=O)c(O)c2)c(F)c1` [Example 1A, 4-(2-fluoro-4-{[(3-methylbutyl)amino]methyl}phenoxy)-2-hydroxybenzamide, hydrochloride salt] returned a Ki in data set [1] of 0.652 nM. For the same compound, the inhibitory constant (Ki) in data set [2] amounted to 0.335 nM. The compound also returned a Ki in data set [3] of 0.64 nM. Besides, in data set [7], the half-life was 174 min, the clearance was 18.6 mL/min/kg and the Vd worked out at 2 L/kg.

As for `NC(=O)c1ccc(Oc2ccc(CNC[C@H]3CCCO3)cc2F)cc1O` [Example 3G], the figures for the Ki in data set [1], in data set [2] and in data set [3] were 1.09 nM, 3.91 nM and 10.3 nM, respectively.

For `NC(=O)c1ccc(Oc2c(F)cc(CNC3Cc4ccccc4C3)cc2F)cc1O` [Example 4F], the results for the Ki in data set [1] and in data set [3] were 0.0848 nM and 0.0543 nM, respectively.

For the compound `NC(=O)c1ccc(Oc2ccc(CNCC3(O)CCCCC3)cc2F)cc1O` [Example 3I], the Ki came out at 0.215 nM in data set [1], 0.158 nM in data set [2] and 3.33 nM in data set [3].

With `NC(=O)c1ccc(Oc2ccc(CNC[C@@H]3CCCO3)cc2F)cc1O` [Example 3F], the values for the Ki in data set [1], in data set [2] and in data set [3] were 0.235 nM, 0.855 nM and 2.23 nM, respectively.

As for `CC(C)OCCNCc1ccc(Oc2ccc(C(N)=O)c(O)c2)c(F)c1` [Example 3C], the figures for the Ki in data set [1], in data set [2] and in data set [3] were 3.78 nM, 1.65 nM and 1.68 nM, respectively.
